We go through six compounds from patent publication US11919895B2, “GPR183 antagonists for the treatment of pain” (Saint Louis University, priority 2019, dated 2024).

Entries after “also recorded” stand apart in the source; their conditions may differ. Like-named read-outs stand apart in the source and are kept apart here.

In series [1] the test system is GPR183. The series is described as follows: Example 1: mechano-allodynia induced by i.th. GPR183 agonist. It counts as in vivo, rodents.
For series [2], the system named is GPR183 signaling in the spinal cord. The series is described as follows: Example 2: mechano-allodynia induced by intrathecal GPR183 agonist. It counts as in vivo, mice. As to the method:
(§1) α,25-dihydroxycholesterol (7α,25-OHC) was purchased from Avanti Polar Lipids (Alabaster, AL) and dissolved in DMSO as a 2 mM stock. For injections 7α,25-OHC was diluted in saline. […] For intrathecal injections, NIBR189 was diluted in saline. Fluoronated 7α,25-OHC analog (SLUPP-1492) was synthesized as described previously (Deng et al., 2016) (detailed methods below and continued in Supplemental methods) and prepared as a 10 mM stock in DMSO. For injections SLUPP-1492 was diluted in saline. SAE compounds were purchased from Enamine (Monmouth Jet., NJ), all compounds were purified via normal phase chromatography and had purities of ≥95%. 100 mM Stock solutions of the SAE compounds were prepared in DMSO. For intrathecal injections, SAE compounds were diluted in saline. Acute intrathecal (i.th.) injections of compounds were performed as described previously (Lu and Schmidtko, 2013), all compounds were administered intrathecally in a total volume of 5-10 μL.
(§2) Mechano-allodynia was measured as previously described (Yosten et al., 2020) using calibrated von Frey filaments (Stoelting; range in mice: 0.07-2.00 g; in rats: 2-26 g) using the Dixon up-and-down method (Dixon, 1991). Mechano-allodynia was defined as a significant (p<0.05) reduction in mechanical paw withdrawal threshold [PWT (g)] compared to baseline forces (before treatment).

For series [3] the test system is unchanged. The series is described as follows: Example 2: cold allodynia induced by intrathecal GPR183 agonist (acetone test). It counts as in vivo, mice. The procedure:
as §1, with “Acute intrathecal (i.th.) injections of compounds were performed as described previously (Lu and Schmidtko, 2013), all compounds were administered intrathecally in a total volume of 5-10 μL.” left out
Cold allodynia was measured as previously described using the acetone test (Xing et al., 2007; Yosten et al., 2020). Briefly, a small drop of acetone was applied to the hind paw of the animal using a flattened polyethylene tube and a syringe and the response to the cold stimulus was scored (0, no response; 1, brisk withdrawal or flick of the paw; 2. repeated flicking of the paw; 3. repeated flicking and licking of the paw). […] When mechanical and cold allodynia were measured on the same animal, mechano-allodynia was measured first with at least 15 minutes before testing cold allodynia.

The target of series [4] is T1, GPR183 (Homo sapiens, UniProt P32249). The series is described as follows: Calcium mobilization in HL-60 cells after siRNA knock-down of GPR183. It counts as cell-based. As to conditions: HL-60 cells treated with siRNA, FIG. 12E. Also on record: host or cells: HL-60 (human leukemia) cells. As to the method: Serial dilutions (5×) of compounds were prepared in 50:1 HBSS/HEPES.HL-60 cells (1×10^7) were incubated in 50:1 HBSS/HEPES containing 5 μM indo-1-AM (Thermo Fischer Scientific; Waltham. MA) and 0.05% pluronic acid for 0.5 hours at room temperature. Cells were centrifuged and washed with 50:1 HBSS/HEPES and resuspended in buffer. Cells were loaded onto a black 96-well Greiner Bio-One (Thermo Fischer Scientific; Waltham, MA) clear-bottom plate at 100,000 cells/well for a 5× dilution. For agonism assays, cells were immediately incubated for 15 minutes at 37° C. inside a FlexStation 3 Multimode Plate Reader (Molecular Devices; Sunnyvale, CA). Following the 15 minute incubation period, 5× of the compound was added and fluorescence was read for 150 seconds at 37° C. This method was utilized to determine the EC80 value of 7α,25·OHC (EC80=200 nM). For antagonism assays, before the addition of agonist, 5× of the antagonist was added and incubated for 15 minutes at 37° C. inside a FlexStation3. After allowing 15 minutes of equilibration, the determined EC80 of 7α,25-OHC (200 nM) was added, and fluorescence was read for 150 secs at 37° C. Calcium mobilization was determined ratiometrically using λex 350 nm and λem 405/490 nm. […]
siRNA was purchased from Santa Cruz Biotechnology (Dallas, TX). HL-60 cells were centrifuged and counted with a hemocytometer to obtain 2.5×10^6 cells. […]
(In general: Calcium flux is commonly read through the fluorescence of an indicator in the cells.)
Target sequence in this assay (P32249 whole entry): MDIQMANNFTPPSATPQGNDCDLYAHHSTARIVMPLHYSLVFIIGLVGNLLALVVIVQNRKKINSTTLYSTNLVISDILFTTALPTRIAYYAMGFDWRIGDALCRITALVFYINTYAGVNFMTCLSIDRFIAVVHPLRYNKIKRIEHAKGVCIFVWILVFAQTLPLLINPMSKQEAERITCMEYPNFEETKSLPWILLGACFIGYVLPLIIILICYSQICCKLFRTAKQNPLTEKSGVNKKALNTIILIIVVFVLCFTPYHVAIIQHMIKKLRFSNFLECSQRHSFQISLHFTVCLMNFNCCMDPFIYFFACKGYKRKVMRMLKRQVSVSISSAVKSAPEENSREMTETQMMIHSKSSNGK

Series [5] addresses T1, GPR183. The series can be described thus: Calcium mobilization agonism assay in HL-60 cells. To be noted: for EC80: calcium mobilization. The arrangement: host or cells: HL-60 (human leukemia) cells. It counts as cell-based. The procedure: The Human leukemia (HL)-60 cells (American Type Culture Collection; Manassas, VA) were cultivated in RPMI 1640 media containing 10% heat-inactivated fetal bovine serum (FBS), 1% penicillin, and 1% GlutaMax. Cells were passaged every 3 days and maintained at a cell concentration below 1×10^6 to prevent differentiation.
Serial dilutions (5×) of compounds were prepared in 50:1 HBSS/HEPES.HL-60 cells (1×10^7) were incubated in 50:1 HBSS/HEPES containing 5 μM indo-1-AM (Thermo Fischer Scientific; Waltham. MA) and 0.05% pluronic acid for 0.5 hours at room temperature. Cells were centrifuged and washed with 50:1 HBSS/HEPES and resuspended in buffer. Cells were loaded onto a black 96-well Greiner Bio-One (Thermo Fischer Scientific; Waltham, MA) clear-bottom plate at 100,000 cells/well for a 5× dilution. For agonism assays, cells were immediately incubated for 15 minutes at 37° C. inside a FlexStation 3 Multimode Plate Reader (Molecular Devices; Sunnyvale, CA). Following the 15 minute incubation period, 5× of the compound was added and fluorescence was read for 150 seconds at 37° C. This method was utilized to determine the EC80 value of 7α,25·OHC (EC80=200 nM). For antagonism assays, before the addition of agonist, 5× of the antagonist was added and incubated for 15 minutes at 37° C. inside a FlexStation3. After allowing 15 minutes of equilibration, the determined EC80 of 7α,25-OHC (200 nM) was added, and fluorescence was read for 150 secs at 37° C. Calcium mobilization was determined ratiometrically using λex 350 nm and λem 405/490 nm. Dose-response data were normalized to a 0.5% DMSO vehicle control and the maximum response. From the normalized data, non-linear regression curves were then generated to calculate the appropriate EC50 and IC50 values. Each compound was run in triplicate (n=3).
Target sequence in this assay (P32249 whole entry): as above

For series [6], the target named is T1, GPR183. As to conditions: Benned-Jensen et al., 2013; read-out: IC50, GPR183 antagonist; cited from earlier work.
Target sequence in this assay (P32249 whole entry, species assumed): as the sequence (P32249 whole entry) above
For series [7] the following is noted: Ardecky et al., 2010; cited from earlier work.
The conditions of series [8]: Ardecky et al., 2010; cited from earlier work. The source holds these as a separate data set.
Series [9] deals with CCI-induced neuropathic pain. The series is described as follows: Example 1: intrathecal injection in CCI-induced neuropathic pain. As to conditions: for effect on behaviors on the contralateral side: intrathecal injection (5 μl), CCI; for reversal of CCI-induced neuropathic pain behaviors (allodynia) ipsilateral to injury: intrathecal injection at time of peak neuropathic pain (day 7). It counts as in vivo, rodents.

The test system of series [10] is CCI-induced mechano-allodynia. The series can be described thus: Example 2: CCI-induced mechano-allodynia, intrathecal injection (von Frey). It counts as in vivo, mice. The procedure: as §1
CCI of the left sciatic nerve of mice and rats was performed under general anesthesia as previously described (Yosten et al., 2020). Briefly, animals were anesthetized with 2% isoflurane/O2, the left thigh was shaved and disinfected with Dermachlor solution. A small incision (1-1.5 cm) was made in the middle of the lateral aspect of the left thigh to expose the sciatic nerve. The nerve was loosely ligated around the diameter at 3 distinct sites (1 mm apart) using silk sutures (6.0, mice; 4.0, rats). The surgical site was closed with a skin clip and disinfected and treated with topical lidocaine (2%). Sham animals underwent the same procedure without nerve ligation. Peak allodynia developed by D7-D10 following CCI surgery.
as §2

Series [11] deals with T1, GPR183. The series can be described thus: Calcium mobilization antagonism assay (7α,25-OHC-induced) in HL-60 cells. It counts as cell-based. Also on record: host or cells: HL-60 (human leukemia) cells. As to conditions: 7α,25-OHC at EC80.
Target sequence in this assay (P32249 whole entry): as above
Experimental: Serial dilutions (5×) of compounds were prepared in 50:1 HBSS/HEPES.HL-60 cells (1×10^7) were incubated in 50:1 HBSS/HEPES containing 5 μM indo-1-AM (Thermo Fischer Scientific; Waltham. MA) and 0.05% pluronic acid for 0.5 hours at room temperature. Cells were centrifuged and washed with 50:1 HBSS/HEPES and resuspended in buffer. Cells were loaded onto a black 96-well Greiner Bio-One (Thermo Fischer Scientific; Waltham, MA) clear-bottom plate at 100,000 cells/well for a 5× dilution. […] For antagonism assays, before the addition of agonist, 5× of the antagonist was added and incubated for 15 minutes at 37° C. inside a FlexStation3. After allowing 15 minutes of equilibration, the determined EC80 of 7α,25-OHC (200 nM) was added, and fluorescence was read for 150 secs at 37° C. Calcium mobilization was determined ratiometrically using λex 350 nm and λem 405/490 nm. Dose-response data were normalized to a 0.5% DMSO vehicle control and the maximum response. […]
The mark [12] stands for this setting: acute i.th. on D7 post-surgery, male and female mice, SAE-1 800 nM, SAE-10 1.4 μM, SAE-14 2.9 μM.

The term EC50 denotes the concentration at which the effect is half-maximal. Usually EC80 stands for the point of the concentration-response curve where the effect stands at 80%. Consider `C[C@H](CCCC(C)(C)O)[C@H]1CC[C@H]2[C@@H]3[C@H](O)C=C4C[C@@H](O)CC[C@]4(C)[C@H]3CC[C@]12C` [7α,25-OHC, 7α,25-dihydroxycholesterol], for which the “ED50, induction of mechano-allodynia” value in the series on GPR183 [1] (i.th. injection, n=6/dose, 3 doses) came out at 0.031 ng; in [2] (i.th. injection, mice, FIG. 14A) it was 0.074 µM. Further, in series [2] (acute i.th., 7α,25-OHC 24, 72, 240 nM, SLUPP-1492 615 nM, male and female mice), the induction of mechano-allodynia entry was “induced a dose and time-dependent mechano-allodynia”. Besides, in series [3] (i.th., 7α,25-OHC 240 nM, SLUPP-1492 615 nM, mice), the induction of cold-allodynia entry is “induced time-dependent development of cold-allodynia”. Moreover, the “7α,25-OHC-induced calcium mobilization with GPR183-specific siRNA” value at GPR183 [4] is given as “abolished”. In addition, the EC50 on GPR183 [5] was 0.0424 µM. For the same compound, the “calcium response in HL-60 cells that express GPR183” value at GPR183 [5] (FIG. 1) is recorded as “very prominent calcium response”. The EC80 came to 0.209 µM at GPR183 [5] (HL-60 cells) and 0.2 µM at GPR183 [5] (HL-60 cells, listed as 7α,25·OHC). Moreover, the “HillSlope (best-fit value)” value on GPR183 [5] (log(agonist) vs. normalized response, variable slope, HL-60 cells) is on record as 0.8624.
For orientation: IC50 means the midpoint of a concentration-inhibition curve. As for `O=C(/C=C/c1ccc(Cl)cc1)N1CCC2(CC1)CN(Cc1ccc(Cl)c(Cl)c1)C(=O)O2` [GSK682753A], the IC50 on GPR183 [6] was 0.2 µM. For the same compound, the plasma stability result in series [7] is recorded as “poor”. Also, the microsomal stability entry in series [8] is on record as “poor”.
As to `COc1ccc(C(=O)N2CCN(C(=O)/C=C/c3ccc(Br)cc3)CC2)cc1` [NIBR189], in series [9], the “effect on behaviors on the contralateral side” value is reported as “No effects on behaviors on the contralateral side”; the “reversal of CCI-induced neuropathic pain behaviors (allodynia) ipsilateral to injury” value (“reversal … to injury” for short) was “reversal of CCI-induced neuropathic pain behaviors ipsilateral to injury in a time- and dose-dependent manner”. Besides, the “reversal of CCI-induced mechano-allodynia” value in series [10] (acute i.th. 0.7, 2.3, 23 μM on D7 post CCI, male mice) is reported as “failed to reverse mechano-allodynia; also recorded: did not reverse”.
For `COc1cc(C(C)NC(=O)Cc2c(C)nc(C)[nH]c2=O)cc(OC)c1OC` (stereo not drawn) [SAE-1], in series [9], the “effect on behaviors on the contralateral side” value is “No effects on behaviors on the contralateral side”; the “reversal … to injury” value is “reversal of CCI-induced neuropathic pain behaviors ipsilateral to injury in a time- and dose-dependent manner”. The “reversal of CCI-induced mechano-allodynia” value in series [10] (setting [12]) is “reversed CCI-induced mechanical allodynia in a time-dependent manner”.
Turning to `COc1cc2c(cc1OC)CN(C(=O)NOCc1ccccc1)CC2` [SAE-10], the “reversal of CCI-induced mechano-allodynia” value in [10] (setting [12]) was “reversed CCI-induced mechanical allodynia in a time-dependent manner”.
As for `O=C(CCc1ccc(F)c(F)c1)Nc1cc(F)cc(N2CCOCC2)c1` [SAE-14], on GPR183 [11], the IC50 was found to be 0.0285 µM. Besides, in series [9], the “reversal … to injury” value is given as “reversed allodynia in a time-dependent manner”. For the same compound, the “observable adverse side effects” value in series [9] (intrathecal injection, rodents) was “no observable adverse side effects”. Besides, the “blockade of agonist-induced allodynia” value in the series with GPR183 [1] (i.th. delivery, rodents) is on record as “blocked”. The “reversal of CCI-induced mechano-allodynia” value in [10] (setting [12]) was “reversed CCI-induced mechanical allodynia in a time-dependent manner”. For the same compound, the “prevention of mechano-allodynia induced by 7α,25-OHC” value in series [2] (i.th. pre-treatment 0.3, 1, 3 μM, 7α,25-OHC 480 nM, male and female mice) was “blocked these effects of 7α,25-OHC in a dose-dependent manner; also recorded: dose-dependently prevented”. Besides, the “prevention of cold-allodynia induced by 7α,25-OHC” value in [3] (i.th. pre-treatment 3 μM, 7α,25-OHC 480 nM, male and female mice) is recorded as “blocked these effects of 7α,25-OHC in a dose-dependent manner; also recorded: dose-dependently prevented”.
